Assay results as given in patent publication US6664229B2, “Methods for treatment using novel ligands of the neuropeptide receptor HFGAN72” (SmithKline Beecham p.l.c., priority 1997, dated 2003).

Test system: rats
Assay: Cannula placement verification: dipsogenic response to icv angiotensin II
Format: in vivo, rat
Conditions: 100 ng i.c.v., 5 minute period post-AII, average
Experimental: An appropriate cannula placement is indicated by an intense dipsogenic response to 100 ng i.c.v. angiotensin II (AII). To induce a dipsogenic effect, access is required to the AII receptors located on circumventricular organs around the third ventricle. The time spent drinking for a 5 minute period post-AII is recorded. This tends to be an all-or-nothing effect, but rats spend on average 150 s drinking. […] This may be verified by injection of cresyl violet and sectioning of the brain.

angiotensin II (DRVYIHPF; Angiotensin-2; UniProt P01019 25-32, looked up)
time spent drinking: ~150 s
